Test results as given in publication PMC8041284, “Tunable Methacrylamides for Covalent Ligand Directed Release Chemistry” (Journal of the American Chemical Society, 2021).

Molecular target: BTK (Homo sapiens, UniProt Q06187)
Test: biochemical
Details: read-out: BTK inhibition (%)

BTK, sequence (Q06187 402-655 limits assumed): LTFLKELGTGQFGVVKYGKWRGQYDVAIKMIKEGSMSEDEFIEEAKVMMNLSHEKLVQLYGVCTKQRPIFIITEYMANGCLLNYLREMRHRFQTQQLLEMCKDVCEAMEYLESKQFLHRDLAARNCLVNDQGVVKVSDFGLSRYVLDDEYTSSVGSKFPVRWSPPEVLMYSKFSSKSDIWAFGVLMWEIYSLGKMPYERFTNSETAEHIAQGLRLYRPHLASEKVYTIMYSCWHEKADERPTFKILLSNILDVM

inhibition at 10 µM	Compound
-13.8%	Cc1ccccc1CN1C(=O)C2=C(CCN(Cc3ccccc3)C2)N2CCN=C12 [PCM-0215534]

Same assay, conditions: read-out: BTK inhibition (%), 0.75 uM BTK, […] probe 3l, 15 min preincubation

inhibition at 10 µM	Compound
-4.1%	C[C@@H]1COCCN1c1cc(C2([S@](C)(=N)=O)CC2)nc(-c2ccnc3[nH]ccc23)n1 [PCM-0215530]
55.9%	CCCCNc1ncc2c(-c3ccc(CN4CCN(C)CC4)cc3)cn(C3CCC(O)CC3)c2n1 (stereo not shown) [PCM-0215532]
5.1%	Cc1nn(C)c(COc2ccc(N3CCN(S(=O)(=O)N(C)C)CC3)cc2)c1-c1cccc2c(CCCOc3cccc4ccccc34)c(C(=O)O)n(CCN3CCOCC3)c12 [PCM-0215538]
74.1%	Cc1noc(C)c1-c1ccc(-c2cc(C(N)=O)c(NC(N)=O)s2)c(O[C@H]2CCNC2)c1 [PCM-0215541]
5.4%	CC(C)C[C@H](NC(=O)[C@H](Cc1ccccc1)C[C@@H](O)[C@H](Cc1ccccc1)NC(=O)OC(C)(C)C)C(=O)N[C@@H](Cc1ccccc1)C(N)=O [PCM-0215547]
16.2%	CCOc1cc(C(C)(C)C)ccc1C1=N[C@@](C)(c2ccc(Cl)cc2)[C@@](C)(c2ccc(Cl)cc2)N1C(=O)N1CCN(CCCS(C)(=O)=O)CC1 [PCM-0215548]
17.8%	CCOC(=O)c1csc(Nc2ccc(Cl)cc2)n1 [PCM-0215549]
94.5%	NC(=O)c1cnc2[nH]ccc2c1NC1[C@@H]2CC3C[C@H]1CC(O)(C3)C2 (stereo partly shown) [PCM-0215550]
103%	CN1CCN(c2ccc(C(=O)Nc3n[nH]c4ccc(Cc5cc(F)cc(F)c5)cc34)c(NC3CCOCC3)c2)CC1 [PCM-0215551]
-6.9%	O=C(NCc1ccncc1)C12CC3CC(C1)CC(c1ccc(Cl)cc1)(C3)C2 [PCM-0215553]
99.3%	COc1cccc(-n2c(=O)[nH]c3cc(Cl)n(-c4ccc(-c5cccc(OC)c5O)cc4)c3c2=O)c1 [PCM-0215555]
-2.8%	Nc1cccc(S(=O)(=O)N2CCCN(S(=O)(=O)c3ccc4c(c3)OCCO4)CC2)c1 [PCM-0215556]
-17.8%	CCOc1ccc(Cc2cc([C@@H]3O[C@H](SC)[C@@H](O)[C@H](O)[C@H]3O)ccc2Cl)cc1 [PCM-0215557]
-7.7%	Nc1nc(=S)c2ncn([C@H]3C[C@H](O)[C@@H](CO)O3)c2[nH]1 [PCM-0215558]
88.3%	C=CC(=O)Nc1ccc(CN2C(=O)N(c3cc(OC)cc(OC)c3)Cc3cnc(Nc4ccc(N5CCN(C)CC5)cc4)nc32)cc1 [PCM-0215559]
26.3%	CCOC(=O)N[C@@H]1CC[C@@H]2[C@@H](C1)C[C@H]1C(=O)O[C@H](C)[C@H]1[C@H]2/C=C/c1ccc(-c2cccc(F)c2)cn1 [PCM-0215561]
13.1%	NC1CCC(N[C@@H]2C[C@H]2c2ccccc2)CC1 (stereo partly shown) [PCM-0215562]
-10.3%	CCCN(CCC)C(=O)C1=Cc2ccc(-c3ccc(C(=O)N4CCCC4)cc3)cc2N=C(N)C1 [PCM-0215564]
-9.3%	COc1ccc(COc2ccc(CC#N)cc2)cc1 [PCM-0215565]
-13.9%	CC(C)CCn1c(CN2CCN(C(=O)C3CC3)CC2)nc2c1c(=O)n(C)c(=O)n2C [PCM-0215566]
-2.3%	CC(C)(c1ccc(OCC(O)CO)cc1)c1ccc(OCC(O)CCl)cc1 (stereo not shown) [PCM-0215567]
-36.3%	NCCOCCOCCNC(=O)Cc1ccc(Nc2nc(NCc3ccc(F)cc3)nc(NCC3CCCCC3)n2)cc1 [PCM-0215568]
3.9%	CO[C@@H]1[C@H](OC(=O)/C=C/C=C/C=C/C=C/C(=O)O)CC[C@]2(CO2)[C@H]1[C@@]1(C)O[C@@H]1CC=C(C)C [PCM-0215572]
-19.3%	COc1cc2ncnc(Nc3cccc(Cl)c3F)c2cc1OC(=O)N1CCN(C)C[C@H]1C [PCM-0215575]
15.2%	CCOCc1nc2c(N)nc3ccccc3c2n1CC(C)(C)O [PCM-0215576]
-6.9%	COc1ccc(C(=O)C2CCN(CC(=O)N(Cc3nc4c(c(=O)[nH]3)COCC4)CC3CC3)CC2)cc1 [PCM-0215580]
-16.2%	O=C(O)[C@H]1CSC(c2nc3ccc(O)cc3s2)=N1 [PCM-0215581]
10.8%	O=C(O)CNC(=O)c1nc(Cl)c2ccccc2c1O [PCM-0215583]
-14.5%	C[C@H]1CNCCCN1S(=O)(=O)c1cccc2cncc(F)c12 [PCM-0215585]

Further lines, the compound ahead of its results:

Compound	inhibition at 10 µM
O=C(O)C(=O)c1cn(Cc2ccccc2)c2ccc(-c3ccc(OC(F)(F)F)cc3)cc12 [PCM-0215526]	34%
CCC1C/C(=C\c2cccnc2)C(=O)/C(=C/c2cccnc2)C1 (stereo not shown) [PCM-0215528]	10%
O=[N+]([O-])c1ccc(S(=O)(=O)N2CCN(c3ccnc4cc(Cl)ccc34)CC2)c([N+](=O)[O-])c1 [PCM-0215531]	-12.4%
OC(CNc1ccccc1)Cn1c2ccc(Br)cc2c2cc(Br)ccc21 (stereo not shown) [PCM-0215533]	44.8%
O=c1[nH]c2ccccc2n1C1CCN(Cc2ccc(-c3[nH]c4cc5ncnc5cc4nc3-c3ccccc3)cc2)CC1 [PCM-0215535]	18.6%
CC(=O)O/N=C1/C(c2c(O)[nH]c3cc(Br)ccc23)=Nc2ccccc21 [PCM-0215536]	60.7%
Cc1cc(C)nc(SCC(=O)Nc2ncc(Cc3cccc4ccccc34)s2)n1 [PCM-0215537]	2.3%
C[C@H](Nc1ncnc2nc[nH]c12)c1cc2ccc(F)cc2nc1-c1ccccn1 [PCM-0215539]	3.4%
CC(O)c1cc(C(=O)N[C@@H](C)Cn2ccc(-c3ccc(C#N)c(Cl)c3)n2)n[nH]1 (stereo partly shown) [PCM-0215540]	-20.8%
O=S(=O)(NCCSSCCNS(=O)(=O)c1cc(Cl)ccc1Cl)c1cc(Cl)ccc1Cl [PCM-0215542]	5.4%
NC(=O)c1nc(F)c[nH]c1=O [PCM-0215543]	-6.2%
CC(=O)c1cc2c(o1)C(=O)c1ccccc1C2=O [PCM-0215544]	-0.8%
CC(C)(C)c1ccc(S(=O)(=O)NCc2ccc(C(=O)Nc3cccnc3)cc2)cc1 [PCM-0215545]	-2.3%
CNS(=O)(=O)Nc1nccc(Cc2c(C)c3ccc(Oc4ncccn4)cc3oc2=O)c1F [PCM-0215552]	17.9%
Fc1ccc(CNc2ncnc3ccc(F)cc23)cc1 [PCM-0215554]	-17%
Oc1ccc(Cc2nc3c(Cc4ccccc4)nc(-c4ccc(O)cc4)cn3c2O)cc1 [PCM-0215560]	91.1%
N#CNC(=NCCCCCCOc1ccc(Cl)cc1)Nc1ccncc1 [PCM-0215563]	18.5%
CCCC[S+]([O-])c1sc2nc(-c3cccs3)cc(-c3ccccc3)c2c1N (stereo not shown) [PCM-0215569]	0.8%
Nc1nc(-c2nn(Cc3ccccc3F)c3ncccc23)ncc1C1CC1 [PCM-0215570]	-5.4%
CC[C@@](C)(Nc1ccnc(-c2c[nH]c3ncccc23)n1)C(=O)NCC(F)(F)F [PCM-0215573]	2.1%
COC(=O)N(C)c1c(N)nc(-c2nn(Cc3ccccc3F)c3ncccc23)nc1N [PCM-0215574]	-25.5%
CCn1c(=O)c(-c2ccn[nH]2)cc2c(C)nc(N)nc21 [PCM-0215577]	7.6%
O=C(Nc1cc(Cl)cc2c1[nH]c1cnccc12)c1cccnc1 [PCM-0215579]	12.4%
Oc1c(F)cc(-c2cnccc2-c2ccc(N3CCOCC3)cc2)cc1F [PCM-0215582]	-12.4%
Cc1cn(-c2cc(NC(=O)c3ccc(C)c(Nc4nccc(-c5cnccn5)n4)c3)cc(C(F)(F)F)c2)cn1 [PCM-0215584]	-4.1%
